Experimental data taken from US11666600B2, “Methods for culturing and/or differentiating hematopoietic stem cells into progenitors and uses thereof” (HEMA-QUEBEC, priority 2015, dated 2023).

Experiments:
[1] = test system: Human bone marrow CD34+ cells; test: Expansion of CD34+/CD41+ megakaryocytic progenitors from bone marrow CD34+ cells; type: cell-based; details: 39° C. + PIC 35 nM; 14 days; SFEM + BS1; FIG. 6
Description: Human bone marrow and G-CSF-mobilized peripheral blood CD34+ cells were purchased from AllCells.
Human CD34+-enriched cells (purity 90%) were seeded in 24-well plates at 100 000 cells/mL in expansion medium consisting of either (1) StemSpan™ ACF (ACF; […] Technologies) supplemented with the OMPC cytokine cocktail (Robert et al., 2011), or (2) StemSpan™ SFEM ([…] Technologies) supplemented with the BS1 megakaryocyte expansion and differentiation cocktail (Cortin et al., 2005). OMPC consists of 35 ng/mL thrombopoietin (TPO; Feldan Therapeutics), 10 ng/mL stem cell factor (SCF; Peprotech), and 11 ng/mL human FMS-like tyrosine kinase 3 ligand (FLT3, Peprotech). […]
(§1) Cellular counts and viability were determined by adding Solution 18 (Acridine Orange and DAPI solution, ChemomMetec) and using NucleoCounter™ NC-250 for detection (ChemomMetec).
For cells expanded in conditions favoring differentiation towards the MK lineage, surface markers were detected using the following antibodies: CD34-FITC, CD41a-APC and CD42b-PE. […] All samples were analyzed on an Accuri™ C6 flow cytometer (BD Biosciences), and raw data were analyzed with FCS Express 5 Flow Research Edition software from at least 15 000 viable cell events acquired for each sample. […]
(§2) Cellular counts and viability were determined as described in Example 6.5.

[2] = test system: Human CB CD34+-enriched cells; test: Culture of CB CD34+-enriched cells in erythroid differentiation medium; type: cell-based; details: 14 days
Description: Human cord blood (CB) was collected after obtaining written informed consent from donors, following our institutional Research Ethics Committee guidelines. Mononuclear cells (MNCs) were first separated over a Ficoll-Hypaque™ density gradient (GE Healthcare), then cryopreserved at −180° C. in Cryostor CS10™ medium ([…] Technologies). Thawed MNCs from six to eight CB were pooled before CD34 isolation. CB CD34+ cells were enriched by positive selection using the EasySep™ CD34 enrichment kit, according to the manufacturer's instructions ([…] Technologies).
Human CB CD34+-enriched cells (purity≥90%) were seeded in 24-well plates at 100 000 cells/mL in expansion medium consisting of Eave's basal medium (Iscove's modified Dulbecco's medium (IMDM), 20% BIT ([…] bovine serum albumin, 10 μg/mL bovine pancreatic insulin, 200 μg/mL human transferrin; […] Technologies), 0.1 mg/mL low-density lipoprotein ([…] Technologies), 50 μM 2-mercaptoethanol) supplemented with 20 ng/mL SCF (Peprotech) and 2 U/mL erythropoietin (EPO; Feldan Therapeutics). Cultures were maintained in a humidified atmosphere with 5% CO2 at 37° C. or 39° C., as indicated in the Examples. Cells were diluted at 300 000 cells/mL with fresh medium every 3 to 4 days.
as §1
For cells expanded in conditions favoring differentiation towards the erythroid lineage, surface markers were detected using the following antibodies: CD34-FITC, CD71-APC and CD235-PE. All antibodies were purchased from BD Biosciences, except for CD34-FITC which was purchased from Immunotech. 7AAD was used as a viability dye. All samples were analyzed on an Accuri™ C6 flow cytometer (BD Biosciences), and raw data were analyzed with FCS Express 5 Flow Research Edition software from at least 15 000 viable cell events acquired for each sample.
as §2

[3] = test system: aryl hydrocarbon receptor (AhR) pathway; details: Fares et al., 2014; cited from earlier work

Cl.Cn1nnc(-c2ccc3c(c2)[nH]c2nc(Cc4ccccc4)nc(N[C@H]4CC[C@H](N)CC4)c23)n1 [PIC, (1r,4r)-N1-(2-benzyl-7-(2-methyl-2H-tetrazol-5-yl)-9H-pyrimido[4,5-b]indol-4-yl)cyclohexane-1,4-diamine hydrochloride]
combined use of mild hyperthermia and PIC on expansion of CD34+/CD41+ cells [1]: synergistic effect | mild hyperthermia and PIC on expansion of CB CD34+ cells ([2]; 39° C. + PIC 35 nM, erythroid differentiation medium, FIG. 12): additive effect | mild hyperthermia and PIC on expansion of CB CD34+/CD71+ cells (erythroid progenitors) ([2]; 39° C. + PIC 35 nM, erythroid differentiation medium, FIG. 13): additive effect | effect of addition of PIC on expansion of CD71+ erythroid precursors ([2]; PIC 35 nM, 37° C. and 39° C., FIG. 10): decrease | effect of addition of PIC on total cell expansion ([2]; PIC 35 nM, 37° C. and 39° C., FIG. 11): decrease | suppression of the aryl hydrocarbon receptor (AhR) pathway [3]: without acting as suppressors
